In patent US8729047B2, “Compositions for inhibiting redox-sensitive GTPases” (Board of Regents, The University of Texas System, priority 2010, dated 2014):
Read-outs that look alike come from different tables or passages of the source.

Assays:
Ras [1] = target: T1, Ras (Homo sapiens, UniProt P01112, G12V); experiment: Ras expression and activity in T24 / HT1080 cells; type: cell-based; settings: T24 (or HT1080) cells, 6-TG 1 μM every 48 h and DETA/NO 10 μM every 20 h, longer than 10 days; FIG. 8
T1 construct: endogenous in cells; text also names HT1080
Experimental: (§1) FIG. 8. Examination of Ras and Raf-1 activity in T24 cells treated with various reagents. […] The total Raf-1 expression also was determined using an anti-Raf-1 antibody. Actin expression in cells was shown as controls.

Ras [2] = target: T2, Ras (Homo sapiens, UniProt P01112); experiment: Guanine nucleotide exchange of [3H]GDP-loaded GTPase with 6-TGDP (FIG. 13A); type: binding; settings: [3H]GDP-loaded GTPase 1 μM, 6-TGDP 0-2000 μM, 1 h, read-out: appKD for 6-TGDP
Experimental: (§2) FIG. 13. Guanine nucleotide exchange of small GTPases with 6-TGDP. (A) To monitor 6-TGDP-mediated GTPase GDP dissociation, [^3H]GDP-loaded GTPase (1 μM) was incubated with 6-TGDP (0-2000 μM) for 1 h. (B) To monitor GTPase 6-TGDP dissociation by GDP (0-2000 μM) in the presence and absence of dithiothreitol (DTT), 6-TGDP-loaded GTPase (˜1 μM) was treated with .NO2 (˜3 μM) under anaerobic conditions and was incubated with various concentrations of [^3H]GDP (0-2000 μM) in the presence and absence of DTT (10 mM) for 1 h. For all assays, aliquots were withdrawn and spotted onto nitrocellulose filters. The filters were then washed three times with an assay buffer, and radioactivity was determined using a Beckman-Coulter scintillation counter. The resultant radioactivity (dpm) values associated with GTPase-bound [^3H]GDP were converted into the fraction of mol nucleotide per mol total GTPase. The data presented represent mean and standard error values from triplicate measurements. The apparent dissociation constants (appKD values) of GTPase 6-TGDP association ([^3H]GDP dissociation, A); and 6-TGDP dissociation ([3H]GDP association, B) were obtained by fitting the data to a simple dissociation and association, respectively. […]
(§3) A kinetic assay method using radiolabeled GDP ([^3H]GDP) was established. The apparent dissociation constants (^appKD 6-TGDP) of Rho GTPases (including RhoA, Cdc42, and Rac1/2/3) and Ras with 6-TGDP were determined (FIG. 13). […]
(§4) The true dissociation constant (^trueKD 6-TGDP) of Ras, RhoC, RhoA and Rac1 for 6-TGDP was then calculated to be ˜20.7 pM, 212 μM, 208 μM, and 158 μM [6-TGDP] by using a compensation equation, ^trueKD 6-TGDP=^appKD 6-TGDP/(1+[GDP]/^trueKD GDP) (95), in conjunction with the values given [(^appKD 6-TGDP of Ras, RhoC, RhoA, and Rac1=2300, 230, 224, and 245 μM (FIG. 13) and ^trueKD GDP=9 pM, 12 μM, 13 μM and 1.8 μM, respectively. The ^trueKD GDP of Ras, RhoA and Rac1 was determined previously (Lenzen et al. Biochemistry 37, 7420-7430 (1998); Heo et al. Biochemistry 44, 6573-6585 (2005)) and the ^trueKD GDP of RhoC was further determined. […]

RhoA [3] = target: T3, RhoA (Homo sapiens, UniProt P61586); experiment: as above; type: binding
T3 construct: made in house; host or cells: E. coli
T3 sequence (P61586 whole entry, species assumed): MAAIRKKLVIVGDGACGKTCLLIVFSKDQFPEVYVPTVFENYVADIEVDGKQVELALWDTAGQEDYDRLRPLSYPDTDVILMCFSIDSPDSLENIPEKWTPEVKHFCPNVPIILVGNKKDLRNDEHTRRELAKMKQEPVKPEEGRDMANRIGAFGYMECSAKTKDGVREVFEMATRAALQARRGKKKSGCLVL
Experimental: as §2, §3, §4

Ras [4] = experiment: Ras expression and activity in T24 / HT1080 cells; type: cell-based, human; settings: T24 and HT1080 cells, 8-TG 1 μM with NO donor; not shown
Experimental: as §1

A7r5 cells = experiment: Viability / cytotoxicity of A7r5 cells; type: cell-based, rat; settings: 5 days of treatment; FIG. 24
Excerpt: FIG. 24. Effects of 6- and 8-TG on A7r5 cells. Treatment of cells with 6- or 8-TG is described in FIGS. 19 and 21. The image associated with the effect of 6- or 8-TG was taken after 5 days of treatment.

Ras [5] = target: T2, Ras; experiment: [3H]GDP displacement of 6-TGDP from .NO2-treated 6-TGDP-loaded GTPase with/without DTT (FIG. 13B); type: binding
Experimental: (§5) FIG. 13. Guanine nucleotide exchange of small GTPases with 6-TGDP. (A) To monitor 6-TGDP-mediated GTPase GDP dissociation, [^3H]GDP-loaded GTPase (1 μM) was incubated with 6-TGDP (0-2000 μM) for 1 h. (B) To monitor GTPase 6-TGDP dissociation by GDP (0-2000 μM) in the presence and absence of dithiothreitol (DTT), 6-TGDP-loaded GTPase (˜1 μM) was treated with .NO2 (˜3 μM) under anaerobic conditions and was incubated with various concentrations of [^3H]GDP (0-2000 μM) in the presence and absence of DTT (10 mM) for 1 h. For all assays, aliquots were withdrawn and spotted onto nitrocellulose filters. The filters were then washed three times with an assay buffer, and radioactivity was determined using a Beckman-Coulter scintillation counter. The resultant radioactivity (dpm) values associated with GTPase-bound [^3H]GDP were converted into the fraction of mol nucleotide per mol total GTPase. The data presented represent mean and standard error values from triplicate measurements. The apparent dissociation constants (appKD values) of GTPase 6-TGDP association ([^3H]GDP dissociation, A); and 6-TGDP dissociation ([3H]GDP association, B) were obtained by fitting the data to a simple dissociation and association, respectively. (A) The ^appKD values of Ras, RhoC, RhoA and Rac1 for 6-TGDP, are, respectively, 2300, 230, 224, and 245 μM [6-TGDP]. (B) The appKD values of RhoC with and without DTT are, respectively, 560, and 1000 μM [[^3H]GDP], whereas the ^appKD values of Ras with and without DTT are 530, and 520 μM [[^3H]GDP], respectively. The standard errors of each ^appKD value are less than 10% of their given values, and regression values associated with the fit were r^2>0.9560.
(§6) The ^appKD [3H]GDP was converted into ^trueKD [3H]GDP by using a compensation equation, ^trueKD [3H]GDP=^appKD [3H]GDP/(1+[6-TGDP]/^trueKD GDP) (Segel, I. H. (1993) Enzyme kinetics, A Wiley-Interscience publication, New York) (see above)). The calculated ^trueKD [3H]GDP values of RhoC in the presence and absence of DTT were estimated to be 516 μM and 923 μM, respectively. […] Treatment with DTT, a reducing agent, disrupts the disulfide bond between RhoC and 6-TGDP, liberating 6-TGDP from RhoC, and thereby permitting [^3H]GDP to bind to RhoC.

RhoA [6] = target: T3, RhoA; settings: known value (Morgan et al.); read-out: trueKD for GDP; cited from earlier work
RhoC = RhoC (Homo sapiens, UniProt P08134); experiment: [3H]GDP displacement of 6-TGDP from .NO2-treated 6-TGDP-loaded GTPase with/without DTT (FIG. 13B); type: binding; parameters: made in house; host or cells: E. coli
Sequence of RhoC (P08134 whole entry): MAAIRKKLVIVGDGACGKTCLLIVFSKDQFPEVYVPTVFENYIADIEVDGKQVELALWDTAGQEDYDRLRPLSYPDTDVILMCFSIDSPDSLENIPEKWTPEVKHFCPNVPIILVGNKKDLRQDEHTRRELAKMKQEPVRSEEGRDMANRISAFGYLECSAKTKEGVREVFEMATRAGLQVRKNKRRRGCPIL
Experimental: as §5, §6

Rac1 [7] = target: T4, Rac1 (Homo sapiens, UniProt P63000); parameters: made in house; host or cells: E. coli; settings: determined previously; read-out: trueKD GDP; cited from earlier work
Rac1 [8] = target: T4, Rac1; parameters: made in house; host or cells: E. coli; settings: known value (Morgan et al.); read-out: trueKD for GDP; cited from earlier work
[9] = absence of DTT, calculated by compensation equation, read-out: trueKD [3H]GDP
[10] = presence of DTT, calculated by compensation equation, read-out: trueKD [3H]GDP
[11] = with DTT 10 mM, 6-TGDP-loaded GTPase ~1 μM treated with .NO2 ~3 μM, anaerobic, 1 h, read-out: appKD for [3H]GDP (6-TGDP dissociation)
[12] = without DTT, 6-TGDP-loaded GTPase ~1 μM treated with .NO2 ~3 μM, anaerobic, 1 h, read-out: appKD for [3H]GDP (6-TGDP dissociation)

Question: With `Nc1nc2nc[nH]c2c(=S)[nH]1` [6-TG, 6-thioguanine] as the compound, how does the Ras inactivation (Ras [1]) read?
Answer: significant amount of Ras (per cell mass) was inactivated

Question: With `Nc1nc2c(ncn2[C@@H]2O[C@H](COP(=O)(O)OP(=O)(O)O)[C@@H](O)[C@H]2O)c(=S)[nH]1` [6-TGDP, 6-thioguanosine diphosphate] as the compound, how does the Kd (Ras [2]) read?
Answer: 2300 µM

Question: And the Kd (RhoA [3]; [3H]GDP-loaded GTPase 1 μM, 6-TGDP 0-2000 μM, 1 h, FIG. 13A, read-out: appKD for 6-TGDP)?
Answer: 224 µM

Question: What about the Kd (RhoA [3]; calculated by compensation equation from appKD 6-TGDP and trueKD GDP, read-out: trueKD 6-TGDP) of the same compound?
Answer: 208 µM

Question: With `Nc1nc2[nH]c(S)nc2c(=O)[nH]1` [8-TG, 2-amino-8-mercapto-1H-purin-6(9H)-one] as the compound, how does the “expression and activity of Ras” value (Ras [4]) read?
Answer: virtually unchanged

Question: And the “viability / cytotoxicity of A7r5 cells” value (A7r5 cells)?
Answer: did not alter the viability

Question: For `Nc1nc2c(ncn2[C@@H]2O[C@H](COP(=O)(O)OP(=O)(O)O)[C@@H](O)[C@H]2O)c(=O)[nH]1` [GDP], which Kd (Ras [5]; [9]) is on record?
Answer: 0.0048 µM

Question: And the Kd (Ras [5]; [10])?
Answer: 0.0047 µM

Question: And the Kd (Ras [5]; [11])?
Answer: 530 µM

Question: And the Kd (Ras [5]; [12])?
Answer: 520 µM

Question: What about the Kd (RhoA [6]) of the same compound?
Answer: 13 µM

Question: What about the Kd (RhoC; [9]) of the same compound?
Answer: 923 µM

Question: What about the Kd (RhoC; [10]) of the same compound?
Answer: 516 µM

Question: What about the Kd (RhoC; [11]) of the same compound?
Answer: 560 µM

Question: What about the Kd (RhoC; [12]) of the same compound?
Answer: 1000 µM

Question: What about the Kd (Rac1 [7]) of the same compound?
Answer: 1.8 µM

Question: What about the Kd (Rac1 [8]) of the same compound?
Answer: 1.8 µM
